Experimental data as given in patent US7105529B2, “Substituted oxindole derivatives as protein tyrosine and as protein serine/threonine kinase inhibitors and compositions and methods of treating chemotherapy and radiation therapy side effects” (SmithKline Beecham Corporation, priority 1997, dated 2006).

Legend:
[1] = tested on: MDA-MB468 (human breast carcinoma cell line); experiment: MTT assay, MDA MB468; type: cell-based
Experimental: Compounds are tested for their ability to inhibit cell proliferation and cell viability. The metabolic conversion of 3-(4,5-dimethylthiazol-2-yl)-2,5-diphenyltetrazolium bromide (MTT, Sigma #M2128) to a reduced form is a commonly used measure of cellular viability. Following is the procedure: Cells are maintained in 75 cm^2 tissue culture flasks until ready for use. The cells are grown and plated for the assay in Dulbecco's modified Eagle's media (DMEM) containing 10% fetal bovine serum. For example, the following cell lines can be used: a) human foreskin fibroblasts (HFF); b) HT29 (human colon carcinoma cell line); c) MDA-MB468 (human breast carcinoma cell line); d) RKO (human colon adenocarcinoma cell line); e) SW620 (human colon carcinoma cell line); f A549 (human lung carcinoma cell line); and g) MIA PACA (human pancreatic carcinoma cell line). Cells are maintained at 37° C. in 10% CO2, 90% humidified air. Cells are plated in 96-well tissue culture plates at the densities listed below. 100 μL of cell suspension is added to each well of the 96-well plate except the top row of the plate which contains no cells and serves as a reference for the spectrophotometer. [table] […] Quantitation of metabolic reduction of MTT in each plate is performed by reading optical density at 570 nm wavelength on a Molecular Devices UVmax microplate reader.

[2] = tested on: HDF normal diploid fibroblast cells; experiment: FACS assay (cell death), HDF; type: cell-based; conditions: 50% cell death, 72 h
Experimental: These assays allow determination of both cell death and changes in cell cycle profile in cells following treatment of the compound. The assay is performend as follows: • 1. Cells are incubated in DMEM to which 10% FCS has been added in a humidified incubator at 37° C. and 5% by volume of CO2 in air. The cells are innoculated in 6-well plates at a density of 0.5–5×10^5 cells per well. • 2. The test compound is added in serial dilutions 24–36 h after plating in 0.5% DMSO. The plates are then incubated a further 72 h in the presence of the compound. During this time, cells in control cultures undergo at least three cell divisions. • 3. After incubation, the media is collected and cells are harvested by trypsinization. The cells and media are pooled and pelleted by centrifugation. • 4. The cell pellet is fixed in a final volume of 3 mL of 50% ice cold MeOH and incubated for a minimum of 30 min at −20° C. • 5. The cells are pelleted by centrifugation and resuspended in 0.5 mL PBS containing 1%FCS, […] Propidium Iodide (PI) and 5 mg/mL RNase A and incubated 30 min at 37° C. in the dark. • 6. The samples are analysed by flow cytometry using the relative incorporation of PI as a measure of DNA content of each cell. The % Dead cells is recorded as % of events with less than 2N DNA. […] HDF are normal diploid fibroblast cells. RKO are colon adenocarcinoma cells and MES/SA are ovarian carcinoma cells.

CDK1 = CDK1 (Homo sapiens, UniProt P06493); experiment: CDK1 substrate phosphorylation assay; type: biochemical
Sequence of CDK1 (P06493 whole entry): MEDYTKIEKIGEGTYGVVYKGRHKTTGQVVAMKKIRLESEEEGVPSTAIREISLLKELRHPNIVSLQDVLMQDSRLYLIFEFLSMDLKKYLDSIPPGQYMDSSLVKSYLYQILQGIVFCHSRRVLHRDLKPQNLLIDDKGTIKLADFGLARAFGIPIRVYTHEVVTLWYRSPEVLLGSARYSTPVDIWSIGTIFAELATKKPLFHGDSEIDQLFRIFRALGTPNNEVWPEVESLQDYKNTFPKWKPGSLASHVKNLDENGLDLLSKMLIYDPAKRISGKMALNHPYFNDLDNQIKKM
Sequence of CDK1 (P14635 whole entry partner): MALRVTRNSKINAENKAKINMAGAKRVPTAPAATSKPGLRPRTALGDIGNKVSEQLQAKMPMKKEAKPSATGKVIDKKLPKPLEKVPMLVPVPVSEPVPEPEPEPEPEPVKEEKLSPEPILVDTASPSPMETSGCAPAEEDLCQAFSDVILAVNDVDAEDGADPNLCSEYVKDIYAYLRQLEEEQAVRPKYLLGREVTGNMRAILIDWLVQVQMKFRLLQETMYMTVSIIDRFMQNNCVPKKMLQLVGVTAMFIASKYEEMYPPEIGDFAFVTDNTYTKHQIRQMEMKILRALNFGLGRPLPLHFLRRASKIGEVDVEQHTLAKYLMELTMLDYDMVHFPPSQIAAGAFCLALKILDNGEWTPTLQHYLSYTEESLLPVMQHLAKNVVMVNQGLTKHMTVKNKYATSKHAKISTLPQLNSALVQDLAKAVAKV
Experimental: Cyclin dependent protein kinase assays utilized the peptides Biotin-aminohexyl-[…] and Biotin-aminohexyl-[…]-NH2 as phosphoryl group acceptors. CDK1 and CDK2 were both expressed utilizing a baculovirus expression system and were partially purified to comprise 20–80% of total protein, with no detectable competing reactions present. Typically, assays were performed by incubating either enzyme (0.2–10 nM), with and without inhibitor, one of the two peptide substrates (1–10 nM), [γ-^32P]ATP (1–20 nM), and 10–20 mM Mg^2+ for periods of time generally within the range 10–120 min. Reactions were terminated with 0.2–2 volumes of either 20% acetic acid or 50–100 mM EDTA buffered to pH 7 (substrate consumption <20%). The buffer employed in enzyme assays was either 30 mM HEPES 7.4 containing 0.15 M NaCl and 5% DMSO, the buffer 50 mM MOPS 7.0 containing 0.15 M NaCl and 5% DMSO, or the buffer 100 mM HEPES pH 7.5 containing 0.1 mg/mL BSA and 5% DMSO. Inhibitors were diluted in 100% DMSO prior to addition into the assay. […]

IC50 ([1]; Homo sapiens, MDA-MB-468, 72 h) | SMILES | IC50 [2] | IC50 (CDK1) | IC50 ([1]; 72 h)
1100 to 5000 nM | COC(=O)c1ccc2c(c1)/C(=C/Nc1ccc(S(N)(=O)=O)cc1)C(=O)N2 [Example 27] | > 5000 nM |  | 
 | NS(=O)(=O)c1ccc(NN=C2C(=O)Nc3ccc(-c4cnco4)cc32)cc1 [Example 36] | > 5000 nM | 1 to 10 nM | 
 | O=C1Nc2ccc3ncsc3c2C1=CNc1ccc(S(=O)(=O)NCc2ccncc2)cc1 [Example 104, 4-[(7-Oxo-6,7-dihydro-1-thia-3,6-diaza-as-indacen-8-ylidenemethyl)amino]-N-pyridinyl-4-yl-methyl benzenesulfonamide] |  | 11 to 50 nM | 1100 to 5000 nM
